Data on eight compounds can be found in US6423689B1, “Peptidyl calcium channel blockers” (Warner-Lambert Company, priority 1997, dated 2002).

The target of data set [1] is T1, N-type Ca2+ channels in IMR-32 cells (Homo sapiens, UniProt Q00975).
T1 construct: host or cells: IMR-32 cells, differentiated with dibutyryl cAMP and bromodeoxyuridine
Put plainly: Inhibition of N-type calcium flux in IMR-32 cells (Indo-1 fluorescence, nitrendipine present). The format is cell-based. The following applies: for IC50: IMR-32 cells, 5 μM nitrendipine, K+ depolarization; for inhibition at 1 µM / inhibition at 10 µM: IMR-32. The essentials: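 Differentiated IMR-32 cells (7–13 days) were loaded with 5 μM Indo-1 AM, preincubated with compound for 10 min at 30° C, and depolarized with KCl/CaCl2 stimulation solution, with 5 μM nitrendipine blocking L-channels. Peak-minus-basal 400/490 nm emission ratio was plotted against drug concentration, and IC50 came from four-parameter logistic fits.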

The subject of another data set is DBA/2 mice. Put plainly: animal or person. The following applies: for responders at 30 mg/kg: Mus musculus, iv, read-out: Number of Mice Protected from Tonic Convulsions. Format: in vivo. How it is done:
Audiogenic Seizure Model in DBA/2 Mice
In Vivo Biological Protocol
A compound of the present invention was dissolved in water using 10% (weight/volume) Emulphor (GAF Cop., Wayne N.J. surfactant. Substances were administered by intravenous injection the retro-orbital venous sinus. […] All the male mice, 3-4 weeks old were obtained from Jackson Laboratories Bar Harbour, Me. Immediately before anticonvulsant testing, mice were placed upon a wire mesh, 4 inches square suspended from a steel rod. The square was slowly inverted through 180 degree and mice observed for 30 seconds. Any mouse falling from the wire mesh was scored as ataxia.
Mice were placed into an enclosed acrylic plastic chamber (21 cm in height, approximately 30 cm diameter) with a high-frequency speaker (4 cm diameter) in the center of the top lid. An audio signal generator (Protek model B-810) was used to produce a continuous sinusoidal tone that was swept linearly in frequency between 8 kHz and 16 kHz once each 10 msec. The average sound pressure level (SPL) during stimulation was approximately 100 dB at the floor of the chamber. Mice were placed within the chamber and allowed to acclimatize for 1 minute. DBA/2 mice in the vehicle-treated group responded to the sound stimulus (applied until tonic extension occurred, or for a maximum of 60 sec) with a characteristic seizure sequence consisting of wild running followed by clonic seizures, and later by tonic extension, and finally by respiratory arrest and death in 80% or more of the mice. In vehicle-treated mice, the entire sequence of seizures to respiratory arrest lasts approximately 15-20 seconds.
The incidence of all the seizure phases in the drug-treated and vehicle-treated mice was recorded, and the occurrence of tonic seizures were used for calculating anticonvulsant ED50 values by probit analysis. Mice were used only once for testing at each time and dose point.

The test system of data set [2] is K+ channels in superior cervical ganglion (SCG) neurons. Description: Whole-cell voltage clamp, K+ current in SCG neurons. The following applies: 10 μM. The format is cell-based, rat. The essentials:
(§1)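 Acutely dissociated (trypsin) SCG neurons under whole-cell voltage clamp, external NaCl/KCl/HEPES buffer pH 7.4, K-gluconate/KCl pipette. From holding potential −65 to −55 mV, 35 msec steps every 10 sec to 0 mV (peak Na+ current) or +50 mV (sustained K+ current); compounds perfused locally to steady-state block, reported as percent inhibition of control.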

In data set [3] the test system is Na+ channels in superior cervical ganglion (SCG) neurons. Put plainly: Whole-cell voltage clamp, Na+ current in SCG neurons. Format: cell-based, rat. The following applies: 10 μM. The essentials:
as §1

Data set [4] concerns the target T2, L-type Ca2+ channels in A10 cells (Rattus norvegicus, UniProt P22002).
T2 construct: which endogenously expresses L-type calcium channels; host or cells: A10 rat aortic smooth muscle cells
Put plainly: Inhibition of L-type calcium flux in A10 cells (FLIPR). The format is cell-based. How it is done:
Measurement of L-type Ca^2+ Channel Blocking Potencies of Compounds in A10 cells
Calcium flux through voltage-sensitive calcium channels was assessed by time-resolved monitoring of the fluorescence of pre-loaded calcium-sensitive dyes using FLIPR, a fluorescent image plate reader (Molecular Devices Co.). The A10 smooth muscle cell line derived from embryonic thoracic aorta of the DBIX rat (ATCC, CRL-1476) which endogenously expresses L-type calcium channels. The growth media for A10 cells was Ham's F12/DME high glucose (Irvine Scientific, 9052), supplemented with 20% fetal bovine serum (HyClone Labs, A-1115-L), and 1% each of L-glutamine and antibiotic-antimycotic (same source as above).
Cells were grown to confluency and replated on black-sided 96-well plates (Costar, 3603) for use in FLIPR. Two days after replating, growth media was removed and cells were loaded at 37° C. with 100 μL media containing 1 μM Oregon Green 488 Bapta-1 dye (Molecular Probes, O-6807) for 1 to 3 hours. The dye-containing media was then washed away with buffer (composition in mM: 1.25 CaCl2, 1.2 MgSO4, 11 glucose, 10 HEPES, 3.0 KCl, 137.0 NaCl, pH 7.4 with Tris base) in a Denley Cellwash (Labsystems, CW018B). The residual buffer volume was adjusted to 50 μL. A 5 minute drug-pre-incubation period at 35° C. was initiated when 50 μL of drug-containing buffer was pipetted into the cell plate with the 96-well pipettor integrated in the FLIPR apparatus. Fluorescent counts were monitored at 20 second intervals for 360 seconds, beginning 60 seconds prior to the delivery of drug-containing buffer. Following drug addition, 100 μL aliquots of a high K^+, depolarizing stimulus (composition in mM: 1.25 CaCl2, 1.2 MgSO4, 11 glucose, 10 HEPES, 140.0 KCl, pH 7.4 with Tris base) were added to each well and fluorescence was monitored at 1 second intervals for 120 seconds, beginning 10 seconds prior to the stimulus addition. CCD camera exposure time was 0.4 seconds, laser excitation was at 488 nm with a power of 0.2-0.5W, and a 510 to 560 nm bandpass interference filter preceded the camera.
Data was analyzed as a summation of fluorescent counts above basal during the stimulation period (an approximation of area under the curve), after normalizing the data with a spatial uniformity correction (for variations in laser illumination and cell density) and a negative control correction (zero calcium increase defined as the fluorescence reading in the presence of saturating pharmacologic block of the respective calcium channel). Drug effects were expressed as percent inhibition of fluorescence from an average of 8 K^+-stimulated wells which were pre-treated in the drug incubation period with buffer only.
In the A10 cells, the pharmacologic agent used to define zero calcium influx was nitrendipine (RBI, N-144), at a final concentration of 1.0×10^−6 M.
(In general: Calcium assays in cells follow changes in intracellular calcium, usually with a dye or a luminescent sensor.)

In data set [5] the test system is L-type Ca2+ channels in GH3 cells. Put plainly: Inhibition of L-type calcium flux in GH3 cells (Indo-1 fluorescence). The format is cell-based, rat. How it is done:
Measurement of L-type Ca^2+ Channel Blocking Potencies of Compounds in GH3 Cells Using the Fluorescent Ca^2+ Indicator Indo-1
The GH3 rat pituitary cell line was obtained from the American Type Culture Collection (Rockville, Md.). Cells were grown in Ham's F-10 medium with 15% horse serum, 2.5% fetal bovine serum (FBS), and […] (Gibco, Gaithersburg, Md.). Confluent cells were detached using 0.5 mM EDTA and loaded with 5 μM Indo-acetoxymethyl ester (Molecular Probes, Eugene, Oreg.) in 1% bovine serum albumin (BSA) containing assay buffer (10 mM HEPES/Tris pH 7.4 in Hank's Balanced Salt Solution without bicarbonate or phenol red) for 60 minutes at 30° C. Loaded cells were washed twice, resuspended (approx. 10^7 cells/mL) in assay buffer containing 0.5% BSA, and kept on ice until use (<3 hrs). Different concentrations of the test compounds (60 μL in dimethyl sulfoxide) or controls were added to 5.94 mL of assay buffer containing approximately 3×10^6 loaded cells, and the samples were incubated for 10 minutes at 30° C. After incubation, samples were aliquoted into 3 cuvettes, and their fluorescence was measured with a Photon Technology International (PTI, South Brunswick, N.J.) Model RF-F3004 spectrofluorometer thermostatted at 30° C. Excitation was set at 350 nm and dual emissions were recorded at 400 and 490 nm. Basal emission signals were acquired for 20 seconds, followed by the depolarization of cells by the addition of 200 μL of a stimulation solution (1 M KCl, 68 mM CaCl2) to the stirred cuvette. Emission signals were acquired for an additional 50 seconds after depolarization. Ratio of emission signals (F400 nm/F490 nm), which is proportional to intracellular Ca^2+ concentration, was plotted against time, and the difference between the emission ratio 50 seconds after stimulation and its basal value (before stimulation) was determined. Values obtained in this way were considered as measures of depolarization-induced Ca-flux through L-type channels and plotted as a function of drug concentration. IC50 values of test compounds were calculated by fitting a four-parameter logistic function to the data using the least squares method.

The mark [6] stands for this setting: 30 mg/Kg iv, 15 min post treatment.
[7] abbreviates: 30 mg/Kg iv, 45 min post treatment.

Structures are written as SMILES. Like-named read-outs stand apart in the source and are kept apart here.

In general, IC50 refers to the point on the concentration scale where inhibition reaches its midpoint. Usually inhibition stands for the relative decrease from the control value, in per cent.

T2 sequence (P22002 whole entry): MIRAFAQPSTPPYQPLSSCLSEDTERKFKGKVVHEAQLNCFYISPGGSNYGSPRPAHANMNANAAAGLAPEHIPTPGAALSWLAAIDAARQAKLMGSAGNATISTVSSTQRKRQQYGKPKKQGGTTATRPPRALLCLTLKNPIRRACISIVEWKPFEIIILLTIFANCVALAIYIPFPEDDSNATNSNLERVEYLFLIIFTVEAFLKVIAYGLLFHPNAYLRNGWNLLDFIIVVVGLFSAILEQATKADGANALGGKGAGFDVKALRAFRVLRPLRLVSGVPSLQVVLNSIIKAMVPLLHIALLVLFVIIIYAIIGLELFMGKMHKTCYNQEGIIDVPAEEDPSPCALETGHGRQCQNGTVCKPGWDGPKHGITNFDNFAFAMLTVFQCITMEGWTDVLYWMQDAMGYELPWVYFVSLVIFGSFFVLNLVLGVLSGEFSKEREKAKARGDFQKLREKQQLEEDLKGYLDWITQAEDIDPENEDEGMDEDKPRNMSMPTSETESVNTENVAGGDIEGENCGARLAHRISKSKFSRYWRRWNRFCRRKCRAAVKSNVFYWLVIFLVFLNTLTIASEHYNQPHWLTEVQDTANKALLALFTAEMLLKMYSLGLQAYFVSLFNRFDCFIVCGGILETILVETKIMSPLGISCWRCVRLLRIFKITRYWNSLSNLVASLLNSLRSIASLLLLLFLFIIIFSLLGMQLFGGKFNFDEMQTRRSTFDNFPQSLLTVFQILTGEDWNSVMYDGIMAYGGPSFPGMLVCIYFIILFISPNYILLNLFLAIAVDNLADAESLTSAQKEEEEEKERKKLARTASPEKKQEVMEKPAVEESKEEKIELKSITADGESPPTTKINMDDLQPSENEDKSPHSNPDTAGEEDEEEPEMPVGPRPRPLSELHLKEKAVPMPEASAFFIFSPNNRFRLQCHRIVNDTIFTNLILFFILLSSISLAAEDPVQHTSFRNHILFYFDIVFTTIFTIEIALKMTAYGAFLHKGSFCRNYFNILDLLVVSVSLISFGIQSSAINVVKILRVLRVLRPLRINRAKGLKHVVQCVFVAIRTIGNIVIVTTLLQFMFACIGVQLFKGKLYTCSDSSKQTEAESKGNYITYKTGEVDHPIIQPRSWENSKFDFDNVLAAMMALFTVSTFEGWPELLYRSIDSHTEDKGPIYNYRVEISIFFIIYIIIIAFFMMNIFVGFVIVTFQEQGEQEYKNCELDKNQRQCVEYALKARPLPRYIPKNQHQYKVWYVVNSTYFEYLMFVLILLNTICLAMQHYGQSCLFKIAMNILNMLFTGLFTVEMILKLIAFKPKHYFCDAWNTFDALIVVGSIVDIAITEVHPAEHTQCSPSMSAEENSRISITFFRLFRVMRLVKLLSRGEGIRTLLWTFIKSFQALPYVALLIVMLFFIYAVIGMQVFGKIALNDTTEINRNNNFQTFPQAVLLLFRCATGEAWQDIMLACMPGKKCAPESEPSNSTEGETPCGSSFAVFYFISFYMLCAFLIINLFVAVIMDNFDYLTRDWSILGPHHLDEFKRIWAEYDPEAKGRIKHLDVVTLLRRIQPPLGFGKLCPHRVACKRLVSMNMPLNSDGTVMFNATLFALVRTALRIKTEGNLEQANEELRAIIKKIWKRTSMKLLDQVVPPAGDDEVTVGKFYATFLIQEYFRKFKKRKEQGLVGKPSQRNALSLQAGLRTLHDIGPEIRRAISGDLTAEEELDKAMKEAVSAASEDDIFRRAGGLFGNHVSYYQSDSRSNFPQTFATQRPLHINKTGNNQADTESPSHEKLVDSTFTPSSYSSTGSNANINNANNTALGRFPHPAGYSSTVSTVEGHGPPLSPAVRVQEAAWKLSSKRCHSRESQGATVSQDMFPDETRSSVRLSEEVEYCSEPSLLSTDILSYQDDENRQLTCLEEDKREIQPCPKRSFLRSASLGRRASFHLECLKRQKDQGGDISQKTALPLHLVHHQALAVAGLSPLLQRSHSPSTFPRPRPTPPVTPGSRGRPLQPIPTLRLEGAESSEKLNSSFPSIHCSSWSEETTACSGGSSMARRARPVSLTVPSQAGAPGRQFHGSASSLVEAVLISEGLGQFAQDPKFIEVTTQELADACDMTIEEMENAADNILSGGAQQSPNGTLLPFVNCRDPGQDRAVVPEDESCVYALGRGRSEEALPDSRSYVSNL
T2 sequence (P54290 25-944 partner limits assumed): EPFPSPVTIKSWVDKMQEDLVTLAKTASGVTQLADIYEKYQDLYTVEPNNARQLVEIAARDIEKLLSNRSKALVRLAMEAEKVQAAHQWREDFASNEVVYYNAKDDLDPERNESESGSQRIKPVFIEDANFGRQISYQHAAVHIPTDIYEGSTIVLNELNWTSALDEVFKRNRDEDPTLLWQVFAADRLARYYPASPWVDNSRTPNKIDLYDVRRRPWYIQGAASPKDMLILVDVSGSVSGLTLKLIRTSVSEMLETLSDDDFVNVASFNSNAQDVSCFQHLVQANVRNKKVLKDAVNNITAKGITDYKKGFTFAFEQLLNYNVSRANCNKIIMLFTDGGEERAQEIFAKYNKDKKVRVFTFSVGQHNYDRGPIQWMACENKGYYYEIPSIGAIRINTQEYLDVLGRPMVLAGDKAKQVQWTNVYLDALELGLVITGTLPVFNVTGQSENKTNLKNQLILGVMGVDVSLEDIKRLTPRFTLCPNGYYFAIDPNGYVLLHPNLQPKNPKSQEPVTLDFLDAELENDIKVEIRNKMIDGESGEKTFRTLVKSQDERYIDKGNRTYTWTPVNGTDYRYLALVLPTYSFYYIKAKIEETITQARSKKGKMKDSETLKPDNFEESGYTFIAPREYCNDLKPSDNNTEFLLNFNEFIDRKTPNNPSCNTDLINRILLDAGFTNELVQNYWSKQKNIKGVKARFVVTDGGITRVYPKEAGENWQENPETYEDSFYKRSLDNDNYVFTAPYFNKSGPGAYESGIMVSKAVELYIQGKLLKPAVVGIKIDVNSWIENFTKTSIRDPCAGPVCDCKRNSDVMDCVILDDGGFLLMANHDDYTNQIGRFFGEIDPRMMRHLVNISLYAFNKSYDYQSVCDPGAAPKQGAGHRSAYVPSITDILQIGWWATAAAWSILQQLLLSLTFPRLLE
T2 sequence (P54290 945-1091 partner limits assumed): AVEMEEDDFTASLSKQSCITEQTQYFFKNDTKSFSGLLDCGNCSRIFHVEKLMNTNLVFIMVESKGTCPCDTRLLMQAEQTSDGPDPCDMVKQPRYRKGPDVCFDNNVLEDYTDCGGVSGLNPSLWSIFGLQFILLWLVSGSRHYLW
T2 sequence (P54287 whole entry partner): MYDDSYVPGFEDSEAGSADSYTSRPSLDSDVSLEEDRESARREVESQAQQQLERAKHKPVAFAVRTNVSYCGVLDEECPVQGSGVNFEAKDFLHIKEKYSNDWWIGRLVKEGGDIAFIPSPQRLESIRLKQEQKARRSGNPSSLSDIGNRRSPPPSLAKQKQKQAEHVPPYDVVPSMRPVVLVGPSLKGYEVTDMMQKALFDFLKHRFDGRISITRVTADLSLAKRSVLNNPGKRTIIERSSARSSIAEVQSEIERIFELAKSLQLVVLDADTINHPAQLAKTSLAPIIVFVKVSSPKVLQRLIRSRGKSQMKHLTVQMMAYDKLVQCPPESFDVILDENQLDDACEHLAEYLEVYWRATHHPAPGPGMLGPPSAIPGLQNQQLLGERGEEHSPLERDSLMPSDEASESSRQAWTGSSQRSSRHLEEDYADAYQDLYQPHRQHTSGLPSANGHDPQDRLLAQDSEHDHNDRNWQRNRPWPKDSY

In the case of `CC(C)C[C@H](NC(=S)Nc1ccc(C(C)(C)C)cc1)C(=O)N[C@@H](Cc1ccc(OCc2ccccc2)cc1)C(=O)OC(C)(C)C` (relative stereo) [Example 44, [S-(R*,R*)]-3-(4-Benzyloxy-phenyl)-2-{2-[3-(4-tert-butyl-phenyl)-thioureido]-4-methyl-pentanoylamino}-propionic acid, tert-butyl ester], in data set [1], the “Inhibition of Calcium Flux in IMR-32 Cells % Inhibition at 1 μM” value is 28% and the “Inhibition of Calcium Flux in IMR-32 Cells % Inhibition at 10 μM” value stood at 71%. In the data set with DBA/2 mice (setting [6]), the “Number of Mice Protected from Tonic Convulsions” value (from here on “Number of Mice Protected”) is on record as 0/5.

As to `CC(C)C[C@H](NC(=O)N1CCCCCC1)C(=O)N[C@@H](Cc1ccc(OCc2ccccc2)cc1)C(=O)NC(CO)CO` (relative stereo) [Example 257, [S-(R*,R*)]-Azepane-1-carboxylic acid {1-[2-(4-benzyloxy-phenyl)-1-(2-hydroxy-1-hydroxymethyl-ethylcarbamoyl)-ethylcarbamoyl]-3-methyl-butyl}-amide], in data set [1], the “Inhibition of Calcium Flux in IMR-32 Cells % Inhibition at 1 μM” value is 42%, the “Inhibition of Calcium Flux in IMR-32 Cells % Inhibition at 10 μM” value amounted to 90% and the IC50 was determined as 1400 nM. The “Inhibition of K+ Current, % Inhibition at 10 μM” value in data set [2] was determined as 43%. Besides, the “Inhibition of Na+ Current, % Inhibition at 10 μM” value in data set [3] came out at 5%. Besides, in the data set with DBA/2 mice (setting [6]), the “Dead mice (remark beside the protection count)” value (shortened to “Dead mice”) was “(1 dead)” and the “Number of Mice Protected” value is 3/4. Moreover, in the data set on DBA/2 mice (setting [7]), the “Dead mice” value was 2 (dead) and the “Number of Mice Protected” value is reported as 3/3.

On to `CC(C)C[C@H](NC(=O)N1CCCCCC1)C(=O)N[C@@H](Cc1ccc(OCc2ccccc2)cc1)C(=O)NC1CCN(Cc2ccccc2)C1` (stereo in doubt) [Example 183, Azepane-1-carboxylic acid {(S)-1-[(S)-2-(4-benzyloxy-phenyl)-1-[1-benzyl-(S)-pyrrolidin-3-ylcarbamoyl]-ethylcarbamoyl]-3-methyl-butyl}-amide], for which the half-inhibitory concentration (IC50) was found to be 300 nM in data set [1] and 220 nM in data set [4]. Further, in the data set on DBA/2 mice (0.25 h), the responders at 30 mg/kg is 100%. Moreover, in the data set on DBA/2 mice (mouse, in vivo), the “Dead mice” value is reported as “dead”.

Consider `CC(C)(C)OC(=O)[C@@H](Cc1ccc(OCc2ccccc2)cc1)NC(=O)[C@H](Cc1c[nH]c2ccccc12)NC(=O)N1CCCCCC1` [Example 17, 2(R)-[2(S)-[(Azepane-1-carbonyl)-amino]-3-(1H-indol-3-yl)-propionylamino]-3-(4-benzyloxy-phenyl)-propionic acid tert-butyl ester], for which, in data set [1], the inhibition at 1 µM was found to be 41%, the inhibition at 10 µM came out at 85% and the IC50 was determined as 1850 nM. Also, the IC50 in data set [5] amounted to 5800 nM.

As for `CC(C)C[C@H](NC(=O)N1CCCCCC1)C(=O)N[C@@H](Cc1ccc(OCc2ccccc2)cc1)C(=O)NCCN1CCCCC1` [Example 171, [S-(R*,R*)]-Azepane-1-carboxylic acid {1-[2-(4-benzyloxy-phenyl)-1-(2-piperidin-1-yl-ethylcarbamoyl)-ethylcarbamoyl]-3-methyl-butyl}-amide], in data set [1], the inhibition at 1 µM came out at 62% and the IC50 came to 460 nM. The half-inhibitory concentration (IC50) in data set [4] worked out at 270 nM. In the data set on DBA/2 mice (0.75 h), the responders at 30 mg/kg stood at 0%.

On to `CC(C)C[C@H](NC(=O)N1CCCCCC1)C(=O)N[C@@H](Cc1ccc(OCc2ccccc2)cc1)C(=O)N1CCSCC1` [Example 221, [S-(R*,R*)]-Azepane-1-carboxylic acid {1-[1-(4-benzyloxy-benzyl)-2-thiomorpholin-4-yl-2-oxo-ethylcarbamoyl]-3-methyl-butyl}-amide], for which, in data set [1], the inhibition at 1 µM was determined as 65%. For the same compound, in data set [1], the inhibition at 10 µM was 93%. Besides, the IC50 in data set [4] was 600 nM. The responders at 30 mg/kg in the data set with DBA/2 mice (0.25 h) is 20%; with DBA/2 mice (0.75 h), 0%.

With `CC(C)C[C@H](NC(=O)N1CCCCCC1)C(=O)N[C@@H](Cc1ccc(OCc2ccccc2)cc1)C(=O)NCCc1ccccn1` [Example 231], in data set [1], the inhibition at 1 µM worked out at 55%, the inhibition at 10 µM amounted to 95% and the concentration for half-maximal inhibition (IC50) turned out to be 1110 nM. For the same compound, the half-inhibitory concentration (IC50) in data set [4] was 670 nM. Also, the responders at 30 mg/kg in the data set on DBA/2 mice (0.25 h) amounted to 0%.

For the compound `CC(C)CC(NC(=O)N1CCCCCC1)C(=O)NC(Cc1ccc(OCc2ccccc2)cc1)C(=O)NC(CO)C(C)C` (stereo not shown) [Example 253, Azepane-1-carboxylic acid {1-[2-(4-benzyloxy-phenyl)-1-(1-hydroxymethyl-2-methyl-propylcarbamoyl)-ethylcarbamoyl]-3-methyl-butyl}-amide], in data set [1], the inhibition at 1 µM stood at 60%, the inhibition at 10 µM is 93% and the IC50 came out at 1100 nM. For the same compound, in data set [2], the “Inhibition of K+ Current, % Inhibition at 10 μM” value is given as 62%. Also, in data set [3], the “Inhibition of Na+ Current, % Inhibition at 10 μM” value is 5%. In addition, in the data set with DBA/2 mice (0.25 h), the responders at 30 mg/kg was found to be 0%.
